{"source": "patent US20230272012A1", "about": "“PEPTIDES AND METHODS OF USE” (REALTA LIFE SCIENCES, INC., priority 2020, published 2023)", "key": {"[1]": {"assay": "ABO incompatibility hemolytic assay of complement activity (CH50-type)", "type": "cell-based, human", "conditions": "human; peptide 0.8 mg/ml (~0.5 mM); read-out: decrease of ABO hemolysis compared to PA-I8Sar", "summary_of_the_method": "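Type AB human erythrocytes (5.0×10^7) incubated with 15% (final) type O human serum and 0.5 mM peptide in GVBS^++, 1 h at 37 °C. Hemolysis read as supernatant absorbance at 412 nm, expressed as percent of the serum-plus-RBC positive control; means of three independent experiments ±SEM.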"}, "[2]": {"assay": "Total Antioxidant Capacity (TAC) assay", "conditions": "highest peptide concentration 1.5 mM", "experimental": "As previously reported, the TAC (Total Antioxidant Capacity) Assay (Cell Biolabs, Inc, San Diego, Calif.) was used to measure the antioxidant capacity of the PIC1 variants based on the reduction of copper (II) to copper (I). The kit protocol was performed per the manufacturer's recommendations.\nThe antioxidant properties for the PIC1 variants were evaluated in a Total Antioxidant Capacity (TAC) assay, as previously reported. Total antioxidant activity over a range of peptide concentrations were determined for the stapled and the D-amino acid peptides based on the PA-I8Sar and PA-C9Sar backbones (FIG. 8A-8D), with the activity of the highest peptide concentration reported (1.5 mM) (FIGS. 4A and B, respectively). […] For the D-amino acid variants, there was variation in the amount of antioxidant activity with the peptides having similar, slightly lower and slightly higher levels of total antioxidant capacity. In contrast, stapled peptides (PA-0135 through -0140) as well as combination of stapled and D-amino acid peptides had reduced total antioxidant capacity (FIG. 4A)."}, "[3]": {"test_system": "human neutrophils", "assay": "NETosis assay (free DNA, PicoGreen)", "type": "cell-based", "conditions": "peptide 2 mM; neutrophils stimulated with PMA and H2O2", "experimental": "Free DNA as a marker for NET formation was measured by PicoGreen as previously described. Briefly, 2.0×10^6 human neutrophils in 96-well plates were stimulated with 12 nM PMA and 0.05% H2O2 in RPMI with or without the indicated peptide variants (2 mM) for 2.5 hr in a 37° C. humified incubator supplemented with 5% CO2, allowing NETosis to occur. Neutrophils in RPMI alone served as a negative control. Fifty units of […] (Fisher) were added to each well to allow for digestion of released extracellular DNA for 10 min at 37° C. The preparation was then aliquoted into an adjacent well and mixed 1:1 with prepared PICO green reagent (Fisher). The fluorescence was then quantified on a BioTek microplate reader at excitation 485 nm/emission 528 nm."}, "[4]": {"type": "in vivo, rat", "conditions": "IV in Wistar rats, 20, 200, 400 mg/kg; 0.5-1440 minute", "experimental": "(§1) Male Wistar rats with indwelling jugular catheters were administered PA-0117, -0127, -0130, and -0133 with groups of three animals receiving 20, 200 and 400 mg/kg of the compound as a single, bolus, IV infusion. A control group of rats received an infusion of saline IV. At various time points after infusion (0.5, 2, 5, 20, 60, 120, 240, 480, 1440 minute) an aliquot of blood was drawn and plasma isolated and frozen at −70° C. pending analysis. Animals were sacrificed after the terminal blood draw and a gross necropsy performed.\n(§2) PA-0117 could not be analyzed as no functional complement activity was obtained from the plasma samples. […] PA-0117 was analyzed in a C1q target acquisition assay (C1q binding assay) as described in Example 1 (FIG. 9). […] PA-0127 and -0130 levels were determined by coating the plate with the plasma samples and directly detecting the peptides by rabbit antibody raised against PA-0020 (peptide sequence […]; SEQ ID NO: 57) (FIGS. 10B and 11B). […] PA-0133 could not be detected by the available antibodies.\nPA-0117: The hemolysis assay results were not useable (few pre-bleeds had any activity, and only a few other random samples had any complement activity). The PK assay for PA-0117 was performed by sandwich ELISA (FIG. 9). PA-0127: The results of the hemolysis assay are discussed herein (see also FIG. 10A). […] PA-0130: The results of the hemolysis assay are discussed herein (see also FIG. 11A). […] PA-0133: The results of the hemolysis assay are discussed herein (FIG. 12)."}, "[5]": {"target": "PD-1 (Homo sapiens, UniProt Q15116)", "sequence (Q15116 25-288)": "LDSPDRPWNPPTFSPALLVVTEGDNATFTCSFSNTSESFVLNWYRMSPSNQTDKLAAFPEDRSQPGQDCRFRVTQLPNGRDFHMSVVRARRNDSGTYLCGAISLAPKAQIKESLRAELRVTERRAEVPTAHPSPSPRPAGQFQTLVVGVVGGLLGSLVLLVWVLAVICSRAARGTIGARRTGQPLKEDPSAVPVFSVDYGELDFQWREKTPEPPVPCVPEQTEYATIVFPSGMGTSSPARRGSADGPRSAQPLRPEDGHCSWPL", "assay": "Peptide binding to immobilized PD-1, ELISA plate-based assay", "conditions": "increasing amounts of peptide", "experimental": "(§3) RLS-0117 was allowed to bind to immobilized CTLA-4, PD-1, PD-L1 on the surface of the plate. Bound C1q served as a positive and control for peptide binding. Increasing amounts of peptides were added to the plates followed by a rabbit polyclonal antibody that recognizes the peptides and then a secondary anti-rabbit antibody conjugated with HRP. The plate was then developed by addition of TMB as the substrate for the colorimetric assay.\n(§4) The inventors further evaluated if RLS-0117 could bind to the well characterized checkpoint inhibitor, cytotoxic T-lymphocyte associated protein 4 (CTLA-4 aka CD152). […] Therefore, the pharmaceutical inhibition of CTLA-4 or its ligand has been considered a promising strategy by many cancer researchers and is a therapeutic target in cancer immunotherapy. To ascertain the ability of RLS-0117 to bind CTLA-4, a binding assay was performed in which these proteins were coated on a microtiter plate followed by incubation with increasing amounts of either […]. Plates coated with PD-1, PD-L1 and C1q served as a positive control […]."}, "[6]": {"target": "PD-L1 (Homo sapiens, UniProt Q9NZQ7)", "sequence (Q9NZQ7 19-290)": "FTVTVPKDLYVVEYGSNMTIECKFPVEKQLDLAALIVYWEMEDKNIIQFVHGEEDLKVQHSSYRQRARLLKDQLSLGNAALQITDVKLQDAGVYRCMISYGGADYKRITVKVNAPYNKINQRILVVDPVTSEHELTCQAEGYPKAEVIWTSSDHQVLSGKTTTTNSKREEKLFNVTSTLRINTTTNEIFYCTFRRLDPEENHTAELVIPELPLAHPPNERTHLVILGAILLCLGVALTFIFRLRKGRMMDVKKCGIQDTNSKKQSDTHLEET", "assay": "Peptide binding to immobilized PD-L1, ELISA plate-based assay", "conditions": "increasing amounts of peptide", "experimental": "as §3, §4"}, "[7]": {"test_system": "complement activity", "assay": "Hemolytic assay of plasma after IV infusion into rats", "type": "in vivo, rat", "conditions": "IV in Wistar rats; early time points at the highest dose", "experimental": "as §1, §2"}}, "note": "“Also recorded” adds a separate entry of the source. Bridge positions count the residues as written; N and C are the ends. Square brackets hold non-standard residues; d marks the D form. Ends that are not written are not given here. Peptide text beside a SMILES is read from it. R8 = C=CCCCCCC[C@@](C)(N)C(=O)O; S5 = C=CCCC[C@](C)(N)C(=O)O; Sar = CNCC(=O)O", "data": [{"molecule": "CC[C@H](C)[C@H](N)C(=O)N[C@]1(C)CCCCCCC=CCCC[C@@](C)(C(=O)N[C@@H](CS)C(=O)N[C@@H](CCC(N)=O)C(=O)N[C@@H](CCC(=O)O)C(=O)N[C@@H](CCCNC(=N)N)C(=O)N[C@@H](C)C(=O)N[C@@H](C)C(=O)O)NC(=O)CN(C)C(=O)[C@@H]2CCCN2C(=O)[C@H](CCC(=O)O)NC(=O)[C@H](CC(C)C)NC(=O)[C@H]([C@@H](C)CC)NC(=O)[C@H](CC(C)C)NC1=O", "note": "[PA-0115, IR8LILEP(Sar)S5CQERAA] (H-I[R8]LILEP[Sar][S5]CQERAA-OH; staple 2-9)", "values": [{"measurement": "decrease in ABO hemolysis compared to reference peptide at 1 h", "setting": "[1]", "value": 30, "unit": "%"}, {"measurement": "total antioxidant capacity compared with PA-I8Sar", "setting": "[2]", "value": "much less antioxidant activity"}, {"measurement": "total antioxidant capacity compared with PA-I8Sar", "setting": "[2]; listed as PA-0015", "value": "reduction in total antioxidant capacity"}]}, {"molecule": "CC[C@H](C)[C@H](N)C(=O)N[C@@H](C)C(=O)N[C@@H](CC(C)C)C(=O)N[C@H](C(=O)N[C@@H](CC(C)C)C(=O)N[C@@H](CCC(=O)O)C(=O)N1CCC[C@H]1C(=O)N(C)CC(=O)N[C@@H](CS)C(=O)N[C@@]1(C)CCCC=CCCC[C@@](C)(C(=O)N[C@@H](C)C(=O)O)NC(=O)[C@H](CCCNC(=N)N)NC(=O)[C@H](CCC(=O)O)NC(=O)[C@H](CCC(N)=O)NC1=O)[C@@H](C)CC", "note": "[PA-0117, IALILEP(Sar)CS5QERS5A] (H-IALILEP[Sar]C[S5]QER[S5]A-OH; staple 10-14)", "values": [{"measurement": "decrease in ABO hemolysis compared to reference peptide at 1 h", "setting": "[1]", "value": 25, "unit": "%"}, {"measurement": "reduction of free DNA (marker of NETosis)", "setting": "[3]", "value": "did not reduce levels of free DNA; also recorded: did not show a reduction in free DNA"}, {"measurement": "peptide level in plasma over time", "setting": "[4]", "value": "detected at early time points at each dose and decreased over time"}, {"measurement": "binding to PD-1", "setting": "[5]", "value": "dose-dependent binding"}, {"measurement": "binding to PD-L1", "setting": "[6]", "value": "dose-dependent binding"}]}, {"molecule": "IALILEP(Sar)CCQERA (IALILEP[Sar]CCQERA; cysteine pairing not given here) [RLS-0133*]", "values": [{"measurement": "inhibition of complement activity in the hemolytic assay of rat plasma", "setting": "[7]", "value": "inhibit complement activation"}]}, {"molecule": "IALILEP(Sar)dCCQERRA (IALILEP[Sar][dC]CQERRA; cysteine pairing not given here) [RLS-0127*]", "values": [{"measurement": "inhibition of complement activity in the hemolytic assay of rat plasma", "setting": "[7]", "value": "inhibit complement activation"}]}]}
